In the SangsterLogP compilation:

In order of rising logP:
1. CCCC(=NOCC)C1C(=O)CC2(CCSCC2)OC1=O (centres undefined)  2.9
2. CCCC(=NOCC)C1C(=O)CC2(C=CCCC2)OC1=O (centres undefined)  3.2
3. CCCC(=NOCC)C1C(=O)CC2(CCCC2)OC1=O (centres undefined)  3.22
4. CCCC(=NOCC)C1C(=O)CC(C)(C2CC2)OC1=O (centres undefined)  3.28
5. CC=C(C)C1(C)CC(=O)C(C(CCC)=NOCC)C(=O)O1 (centres undefined)  3.4
6. CCCC(=NOCC)C1C(=O)CC2(CCCCC2)OC1=O (centres undefined)  3.62
7. CCCC(=NOCC)C1C(=O)CC2(CCC(C)C2)OC1=O (centres undefined)  3.66
8. CCCC(=NOCC)C1C(=O)CC2(CCCCC2C)OC1=O (centres undefined)  3.9
9. CCCC(=NOCC)C1C(=O)CC2(CCC(C)CC2)OC1=O (centres undefined)  4.07
10. CCCC(=NOCC)C1C(=O)CC2(CC(C)CC(C)C2)OC1=O (centres undefined)  4.48
11. CCCC(=NOCC)C1C(=O)CC2(CCC(CC)CC2)OC1=O (centres undefined)  4.48
12. CCCC(=NOCC)C1C(=O)CC(c2ccccc2)(c2ccccc2)OC1=O (centres undefined)  4.75
13. CCCC(=NOCC)C1C(=O)CC2(CCCc3ccccc32)OC1=O (centres undefined)  5
14. CCCC(=NOCC)C1C(=O)CC2(CCC(C(C)(C)C)CC2)OC1=O (centres undefined)  5.3
